Series [1] concerns Human rhinovirus type 14 (HRV14, major group). Format: cell-based.
The subject of series [2] is herpesviruses and influenza viruses. Conditions: cited from earlier work.
Series [3] deals with Human herpesvirus type 1 (HSV1). The format is cell-based.
The test system of series [4] is Human coxsackievirus type 9 (CA9). The format is cell-based.
Series [5] has as its system Human respiratory syncytial virus, Long strain (RSV). Format: cell-based.
Series [6] relates to BGM, HEp-2 and HeLa cells.
For series [7] the following is noted: in vivo; cited from earlier work.

Counter-ions that a name gives are not always drawn.

As to `Cc1cc(C(C)(C)C)c(O)c(C)c1CC1=NCCN1` [OMZ, Oxymetazoline hydrochloride], the reduction in infectivity in series [1] was 50-60%.
As to `CN1[C@@H]2CC[C@H]1C[C@@H](OC(=O)C(CO)c1ccccc1)C2` (stereo partly shown) [atropine], the “concentration at which the maximum antiviral effect is achieved” value in series [2] is reported as 2 mM.
In the case of `CN1[C@@H]2CC[C@H]1CC(OC(=O)C(CO)c1ccccc1)C2.CN1[C@@H]2CC[C@H]1CC(OC(=O)C(CO)c1ccccc1)C2.O=S(=O)(O)O` (stereo partly shown) [Atropine sulphate, atropine sulphate], the percentage plaque inhibition in series [3] was 19.52/41.90%; in series [4], 7.63/12.85%; in series [5] it was 7.74/12.36%; in series [1], 11.30/14.12%. For the same compound, the “plaque inhibition of the individual substances” value in series [3] is “approximately 35%”.
For the compound `NC(=O)c1ncn([C@@H]2O[C@H](CO)[C@@H](O)[C@H]2O)n1` [ribavirin, Ribavirin], the reduction in infectivity in series [5] is 50-60%.
Consider `Nc1nc2c(ncn2COCCO)c(=O)[nH]1` [aciclovir, Aciclovir], for which the reduction in infectivity in series [3] is on record as 50-60%.
With aconitine, the percentage plaque inhibition in series [3] is on record as 3.17/11.22%; in series [4], 8.40/10.69%; in series [5], 9.01/16.56%; in series [1], −1.14/2.84%. Besides, in series [3], the “plaque inhibition of the individual substances” value is on record as “approximately 8%”. Besides, the “non-cell-toxic concentration (start of dilution series)” value in series [6] was found to be 50 µg/mL. Further, the lethal dose result in series [7] is “approximately 5 mg”.
